Laboratory results reported in a melting point compilation (Tetko et al.).

SMILES | melting point
CCOC(=O)C(Nc1cccc(NC(C(=O)OCC)C(=O)OCC)c1)C(=O)OCC | 79 °C
C1SSCSSS1 | 60.5 °C
COc1ccc(Nc2cccc(C(F)(F)F)c2)cc1 | 58 °C
CC(=NO)C(=O)c1ccccc1 | 114 °C
Nc1c(Br)cc(C(F)(F)F)cc1Br | 38 °C
COc1ccc(C2(C)CCc3oc4c(Br)cc(Br)cc4c3-c3oc(C)cc32)cc1 (stereo unspecified) | 165 °C
Brc1c(Br)c(Br)c2c(c1Br)Oc1c(Br)c(Br)c(Br)c(Br)c1O2 | 376 °C
N#Cc1ccccc1CCl | 61 °C
NNC(=O)C(O)c1ccccc1 (stereo unspecified) | 130 °C
Nc1ccc(Nc2ccc(N)c3c2C(=O)c2ccccc2C3=O)c2c1C(=O)c1ccccc1C2=O | 275 °C
CC(=O)c1cc(C(C)(C)C)c(O)c(C(C)(C)C)c1 | 147 °C
Cn1nc(-c2ccccc2)cc1N | 132 to 135 °C
CC(=O)CCc1cc2c(cc1[N+](=O)[O-])CCC(C)N2C(=O)c1ccc([N+](=O)[O-])cc1 (stereo unspecified) | 173 °C
CC(C)(Sc1cc(C(C)(C)C)c(O)c(C(C)(C)C)c1)Sc1cc(C(C)(C)C)c(O)c(C(C)(C)C)c1 | 125 °C
COc1cccc(C(=O)C(=O)c2cccc(OC)c2)c1 | 82 °C
NC(=S)c1cnccc1C(F)(F)F | 153 to 156 °C
COc1ccc2c(c1)CCC1C2CCC2(C)C(=O)C(Cl)CC12 (stereo unspecified) | 180 °C
Clc1cc(Cl)c(-c2c(Cl)cccc2Cl)c(Cl)c1 | 85 °C
COc1ccc2sc(C)nc2c1 | 36 °C
Cc1n[nH]c(C)c1/C=C/c1ccccc1 | 184 °C
CC12CCC(C(O)=C/C1=N\Nc1ccccc1)C2(C)C (stereo unspecified) | 188 °C
CC(C)(C)NC(=S)NC(C)(C)C | 168 to 171 °C
Cc1ccc2c(c1[N+](=O)[O-])C(=O)c1c(Cl)c(Cl)c(Cl)c(Cl)c1C2=O | 262 °C
O=C(/C(=N\Nc1cccc(O)c1)S(=O)(=O)c1ccccc1)c1ccc(Cl)cc1 | 125 °C
O=S(=O)(n1ccnc1)n1ccnc1 | 135 to 137 °C

SMILES | melting point
N#Cc1ccc(C(F)(F)F)nc1 | 39 °C
CNC1=C(c2cccc(C(F)(F)F)c2)C(=O)C(c2ccccc2)O1 (stereo unspecified) | 148 °C
ClCc1csc(-c2ccc(Cl)cc2)n1 | 78 to 79 °C
O=C1C=C(Cl)C(=O)C(Cl)=C1 | 123 °C
COC(=O)[C@@H](N)Cc1ccc(O)cc1 | 137 °C
N#CC1=C(N)Oc2c(c(C(F)(F)F)nn2-c2ccccc2)C1c1ccccc1 (stereo unspecified) | 191 °C
CCCCCC(=O)OCCCC | -64.3 °C
O=C(O)c1ccc(N2CCOCC2)s1 | 135 to 137 °C
COC(=O)c1ccc(I)c([N+](=O)[O-])c1 | 102 °C
OCCCCCCCCCCCBr | 46 °C
COc1cc(O)c2c(=O)c3cc(O)ccc3oc2c1 | 266 °C
O=C1CSC(c2cccs2)C1 (stereo unspecified) | 55 to 58 °C
O=C(O)C1C(C(=O)O)C2(Cl)C(Cl)=C(Cl)C1(Cl)C2(Cl)Cl (stereo unspecified) | 209 °C
Cc1nc2ccc3ccccc3c2o1 | 37 °C
COC(=O)CCC(C)C1CCC2=C3CCC4CC(OC(C)=O)CCC4(C)C3CC(OC(C)=O)C21C (stereo unspecified) | 234 °C
COC(=O)c1ccc(C2(C)C=CC=CC=C2)cc1 | 61 °C
CC(=O)CC(=O)c1c(C)c(C)c(C)c(C)c1C | 73.8 to 75.1 °C
CC(=O)OC[C@H]1O[C@@H](OC(C)=O)[C@H](NC(=O)OCc2ccccc2)[C@@H](OC(C)=O)[C@@H]1OC(C)=O | 150 °C
CCCOC(=O)Cn1cc(I)c(=O)c(I)c1 | 186 °C
OCc1cccc(Cl)c1Cl | 88 to 94 °C
O=[N+]([O-])c1ccc(SCCO)cc1 | 60 to 61 °C
COC(=O)C1(C(=O)OC)Cc2ccc(OC)cc2C(=O)O1 | 142 °C
O=C1C=C(NCCc2ccccn2)C(=O)c2ccccc21 | 128 to 129 °C
ClC1CC2CCC1C2 (stereo unspecified) | -5 °C
Cc1nn(C)c(C)c1C(=O)O | 218 to 219 °C

SMILES | melting point
NNC(=O)CC(=O)NN | 154 °C
O=C(NCc1ccccc1)c1cccnc1Cl | 120 °C
COc1cc(OCc2ccccc2)ccc1C=O | 96 °C
CSc1nc2ccccc2c(=O)[nH]1 | 223 to 225 °C
O=C(O)c1cc(F)c(Cl)c([N+](=O)[O-])c1Cl | 193 to 197 °C
Cn1nc(N)c2c(=O)cc[nH]c21 | 215 to 220 °C
CCCCCCCCCOC(=O)c1ccc(N)cc1 | 69 °C
CC(Nc1ccc(Br)cn1)=C(C#N)C(=O)c1ccccc1 | 179 to 181 °C
CC(=O)NC1C(OCc2ccccc2)OC2COC(c3ccccc3)OC2C1OC(C)C(=O)O (stereo unspecified) | 220 to 222 °C
CCCC(=O)CCC | -33 °C
NC(=O)/C(=N\Nc1cc(Cl)c(Cl)cc1Cl)c1nc2ccccc2s1 | 236 °C
CC(Oc1cc(Cl)c(Cl)cc1Cl)C(=O)O (stereo unspecified) | 182 °C
Cc1[nH]c2cc(C(=O)O)ccc2c1C | 150 °C
ClCc1ccc(Cl)c(Cl)c1 | 37.5 °C
CNc1nnc(C(F)(F)F)s1 | 115 to 117 °C
COC(=O)C(C)N(C(=O)Cc1ccccc1)c1c(C)cccc1C (stereo unspecified) | 79 °C
CCOC(=O)c1c(NC(=S)Nc2ccc(Cl)cc2)sc2c1CCN(Cc1ccccc1)C2 | 169 to 172 °C
C#CC=CC=C | -81 °C
Cc1nccn1-c1ccc(CN)cc1 | 90.5 to 91.5 °C
CC(=O)Nc1cc(CCNC(=O)c2ccccc2)c(NC(C)=O)cc1CCNC(=O)c1ccccc1 | 285 °C
O=Cc1ccc2[nH]cnc2c1 | 159 to 161 °C
CCCOc1c2cccc1Cc1cc(Br)cc(c1O)Cc1cccc(c1OCCC)Cc1cc(Br)cc(c1O)C2 | 307 to 309 °C
Cc1cc2c(o1)-c1c(oc3c(I)cc(I)cc13)CCC2(C)c1ccccc1 (stereo unspecified) | 175 °C
Cc1nc(-c2ccc(CBr)cc2)cs1 | 73 to 76 °C
CC(C)(C)OC(=O)N[C@H]1CCCNC1 | 125 °C

SMILES | melting point
O=C(Nc1ccccc1[N+](=O)[O-])c1ccccc1 | 96 °C
Oc1ccccc1C=NC1CCCCC1N=Cc1ccccc1O (stereo unspecified) | 118 °C
CC(=O)OCC(=O)O | 67.5 °C
ClCc1nnc(C2CC2)s1 | 80 to 84 °C
BrC(CCC(Br)C(Br)c1ccccc1)C(Br)c1ccccc1 (stereo unspecified) | 194 °C
Cc1ccc(S(=O)(=O)NC(=O)NC2C3CCC(C)(C2O)C3(C)C)cc1 (stereo unspecified) | 192 °C
Nc1csc(C(F)(F)F)c1-c1ccccc1 | 65 to 66 °C
Cc1cccn2c(=O)c(C(=O)c3ccccc3)cnc12 | 146 to 147 °C
O=C1C(Cl)=C(Cl)C(=O)C(NCc2ccccc2)=C1Cl | 231 °C
CC(=O)Nc1ccccc1N=Nc1ccccc1 | 123 °C
O=Cc1cc(F)ccc1Br | 54 °C
CC1(C)CC(=O)c2cc(-c3ccccc3)n(-c3ccc(Cl)c(Cl)c3)c2C1 | 167 to 169 °C
CCOC(=O)/C(C#N)=C/c1ccc(O)cc1 | 171 to 172 °C
C#Cc1ccc(-c2ccccc2)cc1 | 80 to 87 °C
COc1cccc2cc(C(=O)O)oc12 | 219 °C
CSc1nc2cc(NCc3ccccc3)ccc2[nH]1 | 164 to 167 °C
CC1CCCC=CC2CC(O)CC2C(O)C=CC(=O)O1 (stereo unspecified) | 201 to 205 °C
O=C(O)c1cc2cc3c4c(c2oc1=O)CCCN4CCC3 | 240 °C
Cc1c(C)c2c3ccccc3ccc2c2ccccc12 | 129 °C
O=C(Nc1ccccc1)c1cc([N+](=O)[O-])cc(S(=O)(=O)Nc2ccccc2)c1 | 188 °C
CCCC(C)(C)C(C)(C)C | -54 °C
Nc1ccc(-c2ccc(N)cc2C(F)(F)F)c(C(F)(F)F)c1 | 183 °C
COc1cc(C)cc(OC)c1OC | 36 °C
COc1ccc2cc([N+](=O)[O-])ccc2c1C=O | 174 °C
OCCCCCCCCl | 11 °C

SMILES | melting point
CCOC(=O)CNc1cc(NCC(=O)OCC)c([N+](=O)[O-])cc1[N+](=O)[O-] | 198 °C
CC(C)C(O)(c1ccc(OC(F)(F)F)cc1)c1cncnc1 (stereo unspecified) | 95.3 °C
CC1=NN(c2ccc(C(=O)O)cc2)C(=O)C1 | 284 to 288 °C
O=C(c1ccco1)c1noc(-c2ccc([N+](=O)[O-])cc2)c1S(=O)(=O)c1ccccc1 | 138 °C
COc1ccccc1NC(=S)NN | 151 to 153 °C
N#CC1(C#N)C2COC(C3=C2CCCC3)C1(C#N)C#N (stereo unspecified) | 173 °C
Cc1ccc(C(=O)c2ccccc2C(=O)O)cc1[N+](=O)[O-] | 205 °C
O=C(c1ccc(Cl)c([N+](=O)[O-])c1)C1CC1 | 78 to 80 °C
CC(=O)Oc1c(-c2ccccc2)[nH]c2cc([N+](=O)[O-])c(/C=C/c3ccccc3)cc12 | 224 °C
O=[N+]([O-])c1ccc(Cl)cc1O | 41 °C
O=Cc1ccc(-c2ccccc2Cl)o1 | 75 to 78 °C
CC1(C)N=C(c2ccccc2)C(C)(C)N1O | 78.6 to 80.4 °C
CC(=O)Nc1ccc(N=Nc2ccc([N+]([O-])=Nc3ccc(NC(C)=O)cc3)cc2)cc1 | 317 °C
CC(=O)c1ccc(CCc2ccccc2)cc1 | 68 to 70 °C
CC(=O)Nc1cc(Cl)c(Cl)cc1[N+](=O)[O-] | 126 to 128 °C
COc1cc(C(c2ccc(C)o2)c2ccc(C)o2)c(O)cc1[N+](=O)[O-] | 104 °C
CN1c2ccccc2Sc2ccccc21 | 102 °C
c1ccc2c(c1)ccc1ccc3ccc4ccc5cccnc5c4c3c12 | 270 °C
S=C(Nc1ccccc1)c1ccccc1 | 102 °C
O=C(CCc1ccccc1)CCc1ccccc1 | 13.5 °C
Nc1c(C(=O)O)sc2nc(-c3ccccc3)cc(C(F)(F)F)c12 | 159 to 161 °C
